Like-named read-outs stand apart in the source and are kept apart here.
How the values were obtained:
[1] = system: maize roots; assay: Corn root bioassay (ethylene production by maize roots); assay type: in vivo, Zea mays L.; settings: for activity at 20 µg/mL: Zea mays, read-out: Ethylene, % of control
Protocol: Corn root bioassay: It is well established that roots of Zea mays produce ethylene when exposed to a variety of stresses (for review, see Morgan, PW and Drew, MC, Physiologia Plantarum 100: 620–630, 1997). Mechanical impedance and hypoxia both induce ethylene formation and usually as early as 1 hour after exposure. In response to ethylene treatment, maize roots show decreased expansion and elongation, a high incidence of cell death and the formation of aerenchyma tissue—particularly evident when roots are exposed to hypoxic conditions (Drew, MC et al., Trends in Plant Science 5: 123–127, 2000, Morgan and Drew 1997).
Seeds of Zea mays L. were sown in flats of Perlite, covered with a layer of vermiculite, and irrigated daily with water and/or 1/10 Hoagland solution. Seedlings were cultivated under continuous illumination at 22–25° C. and used when 7 d old. Seedlings were removed from the Perlite and washed under running tap water. Seedlings were allowed to acclimate in water and/or 1/10 Hoagland solution for several hours before being transferred to Falcon tubes containing the test compounds (all 20 mg/l) prepared in 1/10 Hoagland solution. […] Roots were then transferred to gas-tight tubes each containing 200 μl of water. The tubes were sealed and incubated at 26° C. for 1–2 h in darkness before gas samples were drawn from the incubation tubes using a 1 ml syringe and assayed by gas chromatography (Romera, FJ et al. (1999) Annals of Botany 83, 51–55).

[2] = system: Raphanus sativus L. cv. Cherry Belle cotyledons; assay: Radish cotyledon bioassay (expansion growth and chlorophyll accumulation); assay type: in vivo; settings: for Change in fresh weight: continuous illumination, 25° C., ten cotyledons; for activity at 20 µg/mL: Raphanus sativus, read-out: Change in fresh weight, % of control; for cotyledon expansion (in words) / hormone-like activity with respect to expansion growth (in words): Table 3, 48 h incubation
Description: Radish cotyledon bioassay: This bioassay using Raphanus sativus L. cv. Cherry Belle cotyledons was developed by Letham, DS (Physiologia Plantarum 25, 391–396, 1971, incorporated by reference in its entirety) to evaluate the efficacy of cytokinin on cell enlargement. Success using this assay is not restricted to radish. […] In addition to their effect on cell division, cytokinin plays a major role in driving cell enlargement. Compounds in this class of phytohormone and with cytokinin activity also help maintain photosynthetic activity and productivity and abolish proteolytic activity. In cotyledon leaf systems, a requirement for cytokinin is critical and removal of the roots (i.e. the presumed source of cytokinin) renders the cotyledon leaves unable to expand. Exposure to cytokinin (0.02–22 μg/ml) results in a dramatic increase in fresh weight of cotyledons within 72 hours. This effect is not observed with either gibberellin or auxin and is usually delayed or inhibited by abscisic acid and the ethylene precursor, 1-aminocyclopropane-1-carboxylic acid (ACC). […] Thus, the mode of action of cytokinin in this system appears to be similar to that of indole-3-acetic acid (IAA) in auxin-induced stem elongation, a process that depends on an increase in the mechanical extensibility of the cell wall. However, cytokinin antagonizes IAA-mediated cell elongation and appears to do so by promoting ethylene production. Furthermore, cytokinin-induced cell expansion is not usually accompanied by proton (H^+) extrusion and no change in plasma membrane ATPase activity is evident.
Seeds of Raphanus sativus L. cv. Cherry-Belle were germinated in darkness at 24° C. for 36 h in Petri dishes containing filter paper wetted with distilled water. The smaller of the two cotyledons was excised, the fresh weight determined, and 10 cotyledons placed adaxial side down on filter paper in Petri dishes containing 10 ml of KPO4 buffer (2 mM, pH 6.0) and the compounds to be tested at 20 mg/l. […] Chlorophyll content was determined after extraction of tissue into 80% ethanol (containing butylated hydroxytoluene (BHT) 10 mg/l) using the equations Chl a=(13.95A663)−(6.88A647) and Chl b=(24.96A652)−(7.32A663) as described by Lichtenthaler, HK, Methods in Enzymology 148: 350–382, 1987, incorporated by reference in its entirety. FIG. 6 illustrates the difference in cotyledon size in response to the cytokinin kinetin.

[3] = summary statement in the description

| SMILES | activity at 20 µg/mL ([1]; experiment 1, 20 mg/l, 72 h) | activity at 20 µg/mL ([1]; experiment 2, 20 mg/l, 36 h) | Ethylene ([1]; experiment 2, 20 mg/l, 36 h illumination, roots incubated 2 h in darkness at 24° C.) | Chlorophyll a/b ([2]; Experiment 1, 20 mg/l, 72 h) | Change in fresh weight ([2]; Experiment 1, 20 mg/l, 72 h) | Chlorophyll (mg/g FW) a + b ([2]; Experiment 2, 20 mg/l, 48 h) | Chlorophyll (μg/cotyledon) a + b ([2]; Experiment 2, 20 mg/l, 48 h) | Chlorophyll a/b ([2]; Experiment 2, 20 mg/l, 48 h) | Change in fresh weight ([2]; Experiment 2, 20 mg/l, 48 h) | activity at 20 µg/mL ([2]; Experiment 1, 20 mg/l, 72 h) | activity at 20 µg/mL ([2]; Experiment 2, 20 mg/l, 48 h) | chlorophyll accumulation (in words) ([2]; Table 2, 72 h incubation, 20 mg/l) | cotyledon expansion (in words) ([2]; 20 mg/l) | hormone-like activity with respect to expansion growth (in words) ([2]; 20 mg/l) | ethylene-like activities (summary of the examples) [2, 3] | increase of ethylene production (in words) ([1]; other experiments using a different treatment time) | cytokinin-like activities (summary of the examples) [2, 3] |
| --- | --- | --- | --- | --- | --- | --- | --- | --- | --- | --- | --- | --- | --- | --- | --- | --- | --- |
| CC(=O)NCCO [NAE-2, N-Acetyl-2-aminoethanol] | 146% | 160% | 45.96 ± 12.53 pmol/g FW/h | 1.3 | 12.52 ± 2.83 mg | 1.94 mg/g FW | 19.88 μg/cotyledon | 2.0 | 5.86 ± 1.36 mg | 89% | 72% | greater effect than other NAEs | slowed cotyledon expansion | ethylene-like activity | ethylene-like activities |  |  |
| c1coc(CNc2ncnc3[nH]cnc23)c1 [Kinetin, kinetin, reference compound] |  |  |  | 1.2 | 23.74 ± 7.92 mg | 0.81 mg/g FW | 25.78 μg/cotyledon | 1.8 | 27.26 ± 2.88 mg | 169% | 336% |  |  |  |  |  |  |
| CCCCCCCCCCCCCCCCCC(=O)NCCO [NAE-18:0, N-Octadecanoyl-2-aminoethanol] |  |  |  |  |  | 1.85 mg/g FW | 22.42 μg/cotyledon | 1.9 | 7.75 ± 1.01 mg |  | 96% |  |  |  |  |  |  |
| NC1(C(=O)O)CC1 [ACC, 1-aminocyclopropane-1-carboxylic acid, reference compound] |  |  |  | 3.7 | 5.54 ± 2.87 mg | 1.42 mg/g FW | 12.27 μg/cotyledon | 1.8 | 4.25 ± 0.63 mg | 40% | 52% |  |  |  |  |  |  |
| CCCCCCCC/C=C\CCCCCCCC(=O)NCCO [NAE-18:1(Δ9), N-Oleoyl-2-aminoethanol] |  |  |  |  |  | 1.99 mg/g FW | 20.29 μg/cotyledon | 2.0 | 5.78 ± 0.96 mg |  | 71% |  | slowed cotyledon expansion | ethylene-like activity | ethylene-like activities | effective | cytokinin-like activities |

Reference: patent US7205261B2, “Use of certain N-acylethanolamines to achieve ethylene- and cytokinin-like effects in plants and fungi” (Nutra-Park, Inc., priority 2002, dated 2007)
